# Measured values published in US9388142B2, “Quinazolinone derivatives as PARP inhibitors” (MERCK PATENT GMBH, priority 2012, dated 2016).
# Counter-ions that a name gives are not always drawn. Like-named read-outs stand apart in the source and are kept apart here.
# Columns and labels:
# [1] = molecular target: T1, GST-tagged Tnks-1 (1023-1327 aa) (Homo sapiens, UniProt O95271); assay: TNKS1 activity ELISA (autoparsylation assay); assay type: biochemical; settings: read-out: IC50 TNKS1 ELISA
# T1 construct: GST-tagged Tnks-1 (1023-1327 aa, prepared in-house); made in house
# Protocol: Description of the TNKS1 and TNKS2 ELISA Assay
# Then the activity assay with biotinylated NAD is performed in the absence/presence of the compounds. During the enzymatic reaction GST tagged TNKS transfers biotinylated ADP-ribose to itself from biotinylated NAD as co-substrate. For the detection streptavidin-HRP conjugate is added that binds to the biotinylated TNKS and is thereby captured to the plates. The amount of biotinylated resp. autoparsylated TNKS is detected with a luminescence substrate for HRP. The level of the luminescence signal correlates directly with the amount of autoparsylated TNKS and therefore with activity of TNKS.
# The activity ELISA is performed in 384 well Glutathione coated microtiter plates (Express capture Glutathione coated plate, Biocat, Heidelberg, Germany). The plates are pre-equilibrated with PBS. […] The plates are washed 3 times with PBS-Tween-20. The wells are blocked by incubation at room temperature for 20 minutes with 50 μl blocking buffer (PBS, 0.05% Tween-20, 0.5% BSA). Afterwards the plates are washed 3 times with PBS-Tween-20. […] The reaction is stopped by 3 times washing with PBS-Tween-20. For the detection 50 μl of 20 ng/μl Streptavidin, HRP conjugate (MoBiTec, Gottingen, Germany) in PBS/0.05% Tween-20/0.01% BSA are added and the plates are incubated for 30 minutes at room temperature. After three times washing with PBS-Tween-20 50 μl of SuperSignal ELISA Femto Maximum sensitivity substrate solution (ThermoFisherScientific (Pierce), Bonn, Germany) are added. Following a 1 minute incubation at room temperature luminescence signals are measured with an Envision multimode reader (Perkin Elmer LAS Germany GmbH) at 700 nm. The full value used is the inhibitor-free reaction. […] The inhibitory values (IC50) are determined using either the program Symyx Assay Explorer® or Condosseo® from GeneData.
# [2] = molecular target: T2, GST-tagged Tankyrase-1 (1023-1327 aa) (Homo sapiens, UniProt O95271); assay: biochemical
# T2 construct: GST-tagged Tankyrase-1 (1023-1327 aa)
# Text: aq (aqueous), h (hour), g (gram), L (liter), mg (milligram), MHz (Megahertz), min. (minute), mm (millimeter), mmol (millimole), mM (millimolar), m.p. (melting point), eq (equivalent), mL (milliliter), L (microliter), ACN (acetonitrile), AcOH (acetic acid), CDCl3 (deuterated chloroform), CD3OD (deuterated methanol), CH3CN (acetonitrile), c-hex (cyclohexane), DCC (dicyclohexyl carbodiimide), DCM (dichloromethane), DIC (diisopropyl carbodiimide), DIEA (diisopropylethyl-amine), DMF (dimethylformamide), DMSO (dimethylsulfoxide), DMSO-d6 (deuterated dimethylsulfoxide), EDC (1-(3-dimethyl-amino-propyl)-3-ethylcarbodiimide), ESI (Electro-spray ionization), EtOAc (ethyl acetate), Et2O (diethyl ether), EtOH (ethanol), HATU (dimethylamino-([1,2,3]triazolo[4,5-b]pyridin-3-yloxy)-methylene]-dimethylammonium hexafluorophosphate), HPLC (High Performance Liquid Chromatography), i-PrOH (2-propanol), K2CO3 (potassium carbonate), LC (Liquid Chromatography), MeOH (methanol), MgSO4 (magnesium sulfate), MS (mass spectrometry), MTBE (Methyl tert-butyl ether), NaHCO3 (sodium bicarbonate), NaBH4 (sodium borohydride), NMM (N-methyl morpholine), NMR (Nuclear Magnetic Resonance), PyBOP (benzotriazole-1-yl-oxy-trispyrrolidino-phosphonium hexafluorophosphate), RT (room temperature), Rt (retention time), SPE (solid phase extraction), TBTU (2-(1-H-benzotriazole-1-yl)-1,1,3,3-tetramethyluromium tetrafluoro borate), TEA (triethylamine), TFA (trifluoroacetic acid), THF (tetrahydrofuran), TLC (Thin Layer Chromatography), UV (Ultraviolet). Description of the In Vitro Assays Abbreviations: GST=Glutathione-S-transferase FRET=Fluorescence resonance energy transfer HTRF®=(homogenous time resolved fluorescence) HEPES=4-(2-hydroxyethyl)-1-piperazine ethanesulfonic acid buffer DTT=Dithiothreitol BSA=bovine serum albumin CHAPS=detergent; CHAPS=3[(3-cholamidopropyl)dimethylammonio]-1-propanesulfonate Streptavidin-XLent® is a high grade streptavidin-XL665 conjugate for which the coupling conditions have been optimized to yield a conjugate with enhanced performances for some assays, particularly those requiring high sensitivity.
# (§1) The autoparsylation assay is run in two steps: the enzymatic reaction in which GST-tagged Tankyrase-1, resp Tankyrase-2 transferred biotinylated ADP-ribose to itself from biotinylated NAD as co-substrate and the detection reaction where a time resolved FRET between cryptate labelled anti-GST bound to the GST tag of the enzyme and Xlent® labelled-streptavidin bound the biotin-parsylation residue is analysed. The autoparsylation activity was detectable directly via the increase in HTRF signal.
# The autoparsylation assay is performed as 384-well HTRF® (Cisbio, Codolet, France) assay format in Greiner low volume nb 384-well microtiter plates and is used for high throughput screen. […] The reaction is stopped by the addition of 1 μl 50 mM EDTA solution. […] The ratio of the emission signals is determined. The full value used is the inhibitor-free reaction. […] The inhibitory values (IC50) are determined using either the program Symyx Assay Explorer® or Condosseo® from GeneData.
# His-tagged Parp-1 = molecular target: T3, His-tagged Parp-1 (Homo sapiens, UniProt P09874); assay: PARP-1 autoparsylation assay (HTRF); assay type: biochemical
# T3 construct: purchased Enzo Life Sciences GmbH, Lörrach, Germany
# Text: Description of the PARP1 Assay
# Biochemical Activity Testing of PARP-1: Autoparsylation Assay
# as §1, with “His-tagged Parp-1 transfers” for “GST-tagged Tankyrase-1, resp Tankyrase-2 transferred”, “ADP-ribose/ADP-ribose” for “ADP-ribose”, “NAD/NAD” for “NAD”, “anti-His antibody” for “anti-GST”, “His” for “GST”, “is” for “was”
# The autoparsylation assay is performed as 384-well HTRF® (Cisbio, Codolet, France) assay format in Greiner low volume nb 384-well microtiter plates. 35 nM His-tagged Parp-1 (human, recombinant, Enzo Life Sciences GmbH, Lörrach, Germany) and a mixture of 125 nM bio-NAD (Biolog, Life science Inst., Bremen, Germany) and 800 nM NAD as co-substrate are incubated in a total volume of 6 μl (100 mM Tris/HCl, 4 mM Mg-chloride, 0.01% IGEPAL® CA630, 1 mM DTT, 0.5% DMSO, pH 8, 13 ng/μl activated DNA (BPS Bioscience, San Diego, US)) in the absence or presence of the test compound (10 dilution concentrations) for 150 min at 23° C. The reaction is stopped by the addition of 4 μl of the Stop/detection solution (70 nM SA-Xlent® (Cisbio, Codolet, France), 2.5 nM Anti-His-K® (Eu-labelled anti-His, Cisbio, Codolet, France) in 50 mM HEPES, 400 mM KF, 0.1% BSA, 20 mM EDTA, pH 7.0). After 1 h incubation at room temperature the HTRF iss measured with an Envision multimode reader (Perkin Elmer LAS Germany GmbH) at excitation wavelength 340 nm (laser mode) and emission wavelengths 615 nm and 665 nm. The ratio of the emission signals is determined. The full value used is the inhibitor-free reaction. The pharmacological zero value used is Olaparib (LClabs, Woburn, US) in a final concentration of 1 The inhibitory values (IC50) are determined using either the program Symyx Assay Explorer® or Condosseo® from GeneData.
# [3] = read-out: IC50 tankyrase 1 (enzyme assay)
# T1 sequence (O95271 1023-1327): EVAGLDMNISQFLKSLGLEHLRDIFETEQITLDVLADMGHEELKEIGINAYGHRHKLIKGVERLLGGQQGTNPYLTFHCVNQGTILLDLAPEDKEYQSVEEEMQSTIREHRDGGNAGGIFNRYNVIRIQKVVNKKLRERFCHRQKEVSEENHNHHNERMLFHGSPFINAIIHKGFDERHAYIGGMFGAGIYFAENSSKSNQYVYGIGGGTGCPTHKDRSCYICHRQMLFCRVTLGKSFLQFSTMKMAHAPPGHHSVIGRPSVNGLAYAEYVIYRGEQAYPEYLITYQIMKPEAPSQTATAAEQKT
# T2 sequence (O95271 1023-1327): as above
# T3 sequence (P09874 whole entry): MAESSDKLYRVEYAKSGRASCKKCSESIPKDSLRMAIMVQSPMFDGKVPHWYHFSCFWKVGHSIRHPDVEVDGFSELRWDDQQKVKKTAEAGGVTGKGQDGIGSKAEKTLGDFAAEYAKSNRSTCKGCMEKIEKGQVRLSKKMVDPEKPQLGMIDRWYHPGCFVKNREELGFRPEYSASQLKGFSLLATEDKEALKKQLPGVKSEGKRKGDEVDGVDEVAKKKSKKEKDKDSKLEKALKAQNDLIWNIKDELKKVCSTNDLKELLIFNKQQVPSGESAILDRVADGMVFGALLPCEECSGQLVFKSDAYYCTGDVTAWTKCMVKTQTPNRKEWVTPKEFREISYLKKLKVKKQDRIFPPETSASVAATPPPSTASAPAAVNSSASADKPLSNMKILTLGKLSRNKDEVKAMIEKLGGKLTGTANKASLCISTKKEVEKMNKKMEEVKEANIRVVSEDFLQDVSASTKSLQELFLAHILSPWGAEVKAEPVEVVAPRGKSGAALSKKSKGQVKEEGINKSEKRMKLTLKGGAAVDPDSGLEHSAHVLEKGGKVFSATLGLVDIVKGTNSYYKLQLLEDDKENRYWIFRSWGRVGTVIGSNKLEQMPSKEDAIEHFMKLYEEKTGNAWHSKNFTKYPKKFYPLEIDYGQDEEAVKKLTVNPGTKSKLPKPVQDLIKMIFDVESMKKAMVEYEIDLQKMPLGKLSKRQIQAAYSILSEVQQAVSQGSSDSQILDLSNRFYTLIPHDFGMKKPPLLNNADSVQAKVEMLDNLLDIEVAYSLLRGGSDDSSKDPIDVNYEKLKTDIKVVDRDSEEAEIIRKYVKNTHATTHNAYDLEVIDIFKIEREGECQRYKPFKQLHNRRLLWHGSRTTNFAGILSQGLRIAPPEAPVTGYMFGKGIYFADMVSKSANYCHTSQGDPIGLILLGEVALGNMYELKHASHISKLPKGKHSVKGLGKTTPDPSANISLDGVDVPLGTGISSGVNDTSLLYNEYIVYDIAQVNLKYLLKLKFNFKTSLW
Compound,IC50 [1] [nM],"IC50 [2, 3] [nM]",IC50 (His-tagged Parp-1) [nM],IC50 [2] [nM]
"CC(C)(O)c1ccc(-c2nc3ccc(Cl)cc3c(=O)[nH]2)cc1 [Compound A5, 6-chloro-2-[4-(1-hydroxy-1-methyl-ethyl)-phenyl]-3H-quinazolin-4-one]",< 300,< 300,–,–
"CN1CCN(c2ccc(-c3nc4ccc(F)cc4c(=O)[nH]3)cc2)CC1 [Compound A10, 6-fluoro-2-[4-(4-methyl-piperazin-1-yl)-phenyl]-3H-quinazolin-4-one]",< 300,< 300,300 to 3000,–
"CC(C)(O)c1ccc(-c2nc3c(F)cccc3c(=O)[nH]2)cc1 [Compound A3, 8-fluoro-2-[4-(1-hydroxy-1-methyl-ethyl)-phenyl]-3H-quinazolin-4-one]",< 300,< 300,300 to 3000,–
"CC(C)(O)c1ccc(-c2nc3cccc(F)c3c(=O)[nH]2)cc1 [Compound A4, 5-fluoro-2-[4-(1-hydroxy-1-methyl-ethyl)-phenyl]-3H-quinazolin-4-one]",< 300,< 300,300 to 3000,–
"CC(C)(O)c1ccc(-c2nc3c(F)cc(F)cc3c(=O)[nH]2)cc1 [Compound A11, 6,8-difluoro-2-[4-(1-hydroxy-1-methyl-ethyl)phenyl]-3H-quinazolin-4-one]",–,–,300 to 3000,–
"Cc1cc(F)cc2c(=O)[nH]c(-c3ccc(C(C)(C)OCCO)cc3)nc12 [Compound A21, 6-fluoro-2-{4-[1-(2-hydroxy-ethoxy)-1-methyl-ethyl]-phenyl}-8-methyl-3H-quinazolin-4-one]",< 300,300 to 3000,300 to 3000,–
"Cc1cccc2c(=O)[nH]c(-c3ccc(C(C)(C)O)cc3)nc12 [Compound A24, 2-[4-(1-hydroxy-1-methyl-ethyl)-phenyl]-8-methyl-3H-quinazolin-4-one]",< 300,< 300,< 300,–
"CC(C)(O)c1ccc(-c2nc3c(Cl)cccc3c(=O)[nH]2)cc1 [Compound A6, 8-chloro-2-[4-(1-hydroxy-1-methyl-ethyl)-phenyl]-3H-quinazolin-4-one]",< 300,< 300,300 to 3000,–
"CC(C)(O)c1ccc(-c2nc3cccc(Cl)c3c(=O)[nH]2)cc1 [Compound A23, 5-chloro-2-[4-(1-hydroxy-1-methyl-ethyl)-phenyl]-3H-quinazolin-4-one]",< 300,300 to 3000,–,–
"CC(C)(OCCO)c1ccc(-c2nc3ccc(F)cc3c(=O)[nH]2)cc1 [Compound A7, 6-fluoro-2-{4-[1-(2-hydroxy-ethoxy)-1-methyl-ethyl]-phenyl}-3H-quinazolin-4-one]",< 300,< 300,300 to 3000,–
"COc1cccc2c(=O)[nH]c(-c3ccc(C(C)(C)O)cc3)nc12 [Compound A2, 2-[4-(1-hydroxy-1-methyl-ethyl)-phenyl]-8-methoxy-3H-quinazolin-4-one]",< 300,< 300,300 to 3000,–
"O=c1[nH]c(-c2ccc(C3CCNCC3)cc2)nc2c(F)cc(F)cc12 [Compound A34, 6,8-difluoro-2-(4-piperidin-4-yl-phenyl)-3H-quinazolin-4-one hydrochloride]",–,–,–,< 300
"CC(C)(C)c1ccc(-c2nc3ccc(F)cc3c(=O)[nH]2)cc1 [Compound A9, 2-(4-tert-butyl-phenyl)-6-fluoro-3H-quinazolin-4-one]",< 300,< 300,3000 to 50000,–
"CC(C)(O)c1ccc(-c2nc3ccc(F)c(F)c3c(=O)[nH]2)cc1 [Compound A12, 5,6-difluoro-2-[4-(1-hydroxy-1-methyl-ethyl)phenyl]-3H-quinazolin-4-one]",< 300,< 300,300 to 3000,–
"COCCOC(C)(C)c1ccc(-c2nc3ccc(F)cc3c(=O)[nH]2)cc1 [Compound A8, 6-fluoro-2-{4-[1-(2-methoxy-ethoxy)-1-methyl-ethyl]-phenyl}-3H-quinazolin-4-one]",< 300,300 to 3000,3000 to 50000,–
"Cc1cc(F)cc2c(=O)[nH]c(-c3ccc(C(C)(C)O)cc3)nc12 [Compound A25, 6-fluoro-2-[4-(1-hydroxy-1-methyl-ethyl)-phenyl]-8-methyl-3H-quinazolin-4-one]",< 300,< 300,< 300,–
"Cc1cc(F)cc2c(=O)[nH]c(-c3ccc(N4CCN(C)CC4)cc3)nc12 [Compound A28, 6-fluoro-8-methyl-2-[4-(4-methyl-piperazin-1-yl)-phenyl]-3H-quinazolin-4-one]",< 300,300 to 3000,< 300,–
"CC(C)(O)c1ccc(-c2nc3ccc(F)cc3c(=O)[nH]2)nc1 [Compound A13, 6-fluoro-2-[5-(1-hydroxy-1-methyl-ethyl)-2-pyridyl]-3H-quinazolin-4-one]",–,300 to 3000,–,–
"CC(C)(O)c1ccc(-c2nc3c(F)ccc(F)c3c(=O)[nH]2)cc1 [Compound A27, 5,8-difluoro-2-[4-(1-hydroxy-1-methyl-ethyl)-phenyl]-3H-quinazolin-4-one]",–,< 300,–,–
